# In patent publication US20130288292A1, “SURFACE-TENSION BASED FLOW GUIDANCE IN A MICROSTRUCTURE ENVIRONMENT” (priority 2011, published 2013):
# System: PC3-M cells
# Assay: Immunocytochemistry staining of Ki67 in PC3-M cells embedded in 3D Matrigel
# Assay type: cell-based
# Conditions: 20 μM Cycloheximide in growth media; PC3-M cells in 3D Matrigel (90%), Iuvo Slide 3D ICC platform
# Method: FIGS. 11 A-C show immunocytochemistry staining of PC3-M Cells embedded in 3D matrix. PC3-M cells were embedded in 3D Matrigel™ (90%) on the Iuvo™ Slide—3D ICC platform (Figure A.). Once the matrix gelled, growth media (with and without 20 μM Cycloheximide) was added to the side compartments of the channel. Following incubation, the cells in the matrix were fixed by flowing reagents through the side channels and allowing sufficient time for diffusion into the gel. A standard immunocytochemistry protocol (4% formaldehyde fixative, 0.5% TX-100 permeabilization buffer, 10% goat serum blocking buffer, primary antibody for Ki67 from LabVision, and AlexaFluor®594 secondary antibody) was utilized. […] FIG. 11 C. is a graph showing the quantitative analysis of the immunocytochemistry staining of PC3-M Cells embedded in a 3D Matrix.
# Another embodiment of the invention provides a device that enables the use of assay methods requiring multiple liquid replacement, or wash steps that require the diffusion of large biomolecules, in matrices that are very dense, such as Matrigel™. For example, it is becoming increasingly clear that the lack of a native three dimensional tissue microenvironment seriously limits the utility and accuracy of cellular assays, many of which rely on immunocytochemistry as an endpoint. […]
smiles,measurement,value
C[C@@H]1C[C@@H]([C@H](O)CC2CC(=O)NC(=O)C2)C(=O)[C@@H](C)C1 [Cycloheximide],proliferation marker Ki67 (immunocytochemistry staining),loss of proliferation marker
